Structures are written as SMILES.

Data set [1] is described as follows: Antiinflammatory activity in mouse RAW264.7 cells assessed as reduction in LPS-induced NO production after 24 hrs in presence of LPS by colorimetric analysis. It counts as functional, cell-based. The note with it: RAW264.7, 24 h.
The species named for data set [2] is Mus musculus. Put plainly: Cytotoxicity against mouse RAW264.7 cells assessed as reduction in cell viability at 1 to 10 uM after 24 hrs by cell counting based colorimetric analysis. It counts as toxicity. The note with it: raw264.7, 24 h.

Regarding `C/C=C/C#CC#Cc1ccc(C(O)CO)s1` (stereo not given), the IC50 (usually the concentration that inhibits the measured activity by half) in data set [1] turned out to be 28.2 µM.
Still for that read-out and setting: the same measure for `CC#Cc1ccc(-c2ccc(C(O)CO)s2)s1` (stereo not given): 48.7 µM.
Take `N=C(N)NN` [PIMAGEDINE]: the IC50 in data set [1] came out at 24.2 µM.
For `C=C1CCC[C@]2(C)C[C@]3(O)OC(=O)C(C)=C3C[C@@H]12` [ATRACTYLENOLIDE III], the IC50 in data set [1] was greater than 100 µM.
For the molecule `C/C=C\C#CC#Cc1ccc(C(O)CO)s1` (stereo not given), in data set [1], the IC50 came to 12.8 µM.
For `C=C(C)[C@@H]1CC[C@]2(C)C(=C(C)OC3=C2C[C@H]2C4C[C@H](C(C)C)CC[C@@]4(C)CC(=O)[C@@]2(O)O3)C1` (stereo not given in full), the Activity entry in data set [2] is “Toxic”.
As for `CC#Cc1ccc(-c2ccc(C(=O)OC)s2)s1`, in data set [1], the IC50 is greater than 100 µM.
The same measure, in the same setting: under `CC#Cc1ccc(-c2ccc(C(CO)OC)s2)s1` (stereo not given) stands 30.9 µM.
Still for that read-out and setting: under `CC#Cc1ccc(-c2ccc(C=O)s2)s1` stands greater than 100 µM; under `COc1ccc2c(c1)c(CC(=O)O)c(C)n2C(=O)c1ccc(Cl)cc1` [INDOMETHACIN], 13.2 µM.

Source of the values: ChEMBL document CHEMBL3868628, “Dimeric sesquiterpene and thiophenes from the roots of Echinops latifolius” (Bioorg Med Chem Lett, 2016).
